In patent publication US10022356B2, “Compounds for treatment of cancer” (UNIVERSITY OF TENNESSEE RESEARCH FOUNDATION, priority 2013, dated 2018):
≈ marks a conversion by molar mass, not a printed value. Where “and” joins values, the source holds several entries; their conditions need not be identical. Identical values can stand only once. Like-named read-outs stand apart in the source and are kept apart here. Values belong to the compound of their own block, whether it stands above or below them.

Legend:
[1] = Pharmacokinetic study in Sprague-Dawley rats; conditions: rat
[2] = Aqueous solubility (Multiscreen Solubility Filter Plate, LC-MS/MS); assay type: physicochemical
[3] = tested on: metastasis of melanoma to the lungs; experiment: Melanoma lung metastasis model in mice; assay type: in vivo; conditions: i.p. injection 5 days per week for 2 weeks (FIG. 28)
[4] = tested on: B16-F1 melanoma cells; experiment: B16-F1 melanoma colony formation assay in soft agar; assay type: cell-based, mouse; conditions: 14 days; tested 20, 100, 500 nM
Description: B16-F1 melanoma cells were plated at a colony-forming density (2000 cells per well on six-well plates) on top of 0.8% base agar. Cells were grown in 0.4% agar together with DMEM medium supplemented with fetal bovine serum and an antibiotic-antimycotic solution at 37° C. in an atmosphere of 95% air and 5% CO2. […] Compounds were added to the media from 1 mM DMSO stock solutions, and a corresponding dilution of DMSO was used as control. Cells were grown for 14 days. Plates were photographed, and the number of colonies was measured by Artek 880 Automated Colony Counter (Artek Systems Corporation, Farmingdale, N.Y.).

[5] = tested on: A375RF21; experiment: Annexin V/propidium iodide apoptosis detection in A375RF21 cells; assay type: cell-based, human; conditions: 48 hours incubation
[6] = tested on: A375; experiment: MTS cell proliferation assay on parental A375 cells; assay type: cell-based; conditions: Homo sapiens, A-375, read-out: IC50 value for proliferation inhibition
[7] = tested on: A375RF21; experiment: MTS cell proliferation assay on vemurafenib-resistant A375RF21 cells; assay type: cell-based; conditions: Homo sapiens, read-out: IC50 value for proliferation inhibition
[8] = tested on: A375RF21 xenograft; experiment: A375RF21 tumor xenograft in nude mice; assay type: in vivo
Description: Seven to eight week old male nude mice were purchased from Charles River Laboratories International, Inc. (Wilmington, Mass.). A375RF21 cells were suspended in ice-cold phenol red-free and FBS-free DMEM medium without FBS and mixed with high concentration Matrigel (BD Biosciences, San Joes, Calif.) at ratio of 1:1 right before use. 100 μL of this mixture containing 3×10^6 cells were injected subcutaneously (s.c.) to the left-side dorsal flank of each mouse. One week after the inoculation, the mice were randomized into four groups (n=7 for the initial low dose and n=5 for subsequent high dose drug combination) and the treatments started. […] Vehicle control group was i.p. injected with same volume (100 μL) of PEG300 at the same dosing frequency. At the end of the experiments, mice were euthanized and tumor tissue were isolated, weighted and then fixed in 10% buffered formalin phosphate solution.
Tumor volume and body weight of each mouse were evaluated three times a week.

[9] = in vitro; conditions: human, liver microsomes, pH 7.4
[10] = tested on: three melanoma cell lines and four human prostate cancer cell lines; experiment: Antiproliferative activity quoted in the SAR text (average of all seven cell lines); assay type: cell-based
[11] = tested on: Du 145; experiment: SRB cytotoxicity assay, Du 145; assay type: cell-based, human; conditions: RABI, Tables 10A/10B; read-out: DU145 (nM), inhibitory effects
[12] = tested on: LNCaP; experiment: SRB cytotoxicity assay, LNCaP; assay type: cell-based, human; conditions: Reversed aryl benzoyl imidazole (RABI), Tables 10A/10B; read-out: LNCaP (nM), inhibitory effects
[13] = tested on: PC-3; experiment: SRB cytotoxicity assay, PC-3; conditions: read-out: PC3 (nM), inhibitory effects; RABI, Tables 10A/10B
[14] = tested on: PPC-1; experiment: SRB cytotoxicity assay, PPC-1; assay type: cell-based, human; conditions: RABI, Tables 10A/10B; read-out: PPC1 (nM), inhibitory effects
[15] = tested on: B16-F1 melanoma; experiment: B16-F1 melanoma tumors in C57/BL mice; assay type: in vivo; conditions: 60 mg/kg; after 13 days of treatment; C57BL/6 mice
[16] = tested on: A375 human melanoma xenograft; experiment: A375 human melanoma xenograft in SHO nude mice; assay type: in vivo; conditions: 60 mg/kg; after 31 days of treatment
Description: FIG. 19 depicts in vivo study of ABI compounds. […] C57BL/6 mice bearing B16-F1 melanoma allograft (n=5 per group). Each mouse received 0.5×10^6 cells by s.c. injection into the flank. 30 μL i.p. daily treatments were started when tumor size reached ˜100 mm^3. […] SHO nude mice bearing an A375 human melanoma xenograft (n=5 per group). Each mouse received 2.5×10^6 cells by s.c. injection into the flank. 30 μL i.p. daily treatments were started when the tumor size reached ˜150 mm^3. Control, vehicle solution only; points, means; bars, SD. DTIC, (5-(3,3,-dimethyl-1-triazenyl)-imidazole-4-carboxamide, dacarbazine.
Average body weight of all groups increased slightly throughout the experiment period.

[17] = tested on: PC-3/TxR tumors; conditions: for Tumor size (mm^2) End / Tumor size (mm^2) Start: PC-3/TxR xenograft; for Tumor size (mm^2) End: day 1 and 9, end point day 19; for Tumor size (mm^2) Start: day 1 and 9, start
[18] = Brain penetration (brain and plasma concentrations) in nude mice; conditions: docetaxel IP 10 mpk, 17ya PO 20 mpk, 55 PO 20 mpk
[19] = tested on: A375RF21; experiment: In vitro combination assay (combination index) on A375RF21; assay type: cell-based, human; conditions: Treatment + Vemurafenib
[20] = tested on: A375; experiment: In vitro combination assay (combination index, Chou-Talalay, MTS) on A375; assay type: cell-based, human; conditions: +Vemurafenib; A375 cell line (Tables 3, 4)
[21] = tested on: A375RF21; experiment: Cell cycle analysis (flow cytometry) in A375RF21 cells; assay type: cell-based, human; conditions: resistant A375RF21 cell line
Description: (§1) Flow cytometry analysis was performed as described before (Wang Z, Chen J, Wang J, et al. “Novel tubulin polymerization inhibitors overcome multidrug resistance and reduce melanoma lung metastasis.” Pharm. Res. (2012) 29: 3040-3052). To determine cell cycle distributions in the G2 and M phases (FIG. 23), cells were harvested with trypsin, stained using antiphospho-histone H3-AlexaFluor® 488 antibody on ice for one hour in the dark, followed by stained using PI/RNase solution for 30 minutes at room temperature in the dark per the manufacturer's instructions (#FCCH025103, EMD Millipore Corporation, Ballerica, Mass.). Data were further processed and graphs were prepared using the Modfit 2.0 program (Verity Software House, Topsham, Me.).

[22] = tested on: A375; experiment: Cell cycle analysis (flow cytometry) in parental A375 cells; assay type: cell-based, human
Description: as §1

[23] = tested on: HL60 tumors; experiment: HL60 leukemia xenograft in nude mice; assay type: in vivo; conditions: vincristine 1 mg/kg intraperitoneal injection once a week
[24] = Pharmacokinetic study in ICR mice; conditions: mouse; for MousePK_IV10mgk_Cl / MousePK_IV10mgk_V: IV 10 mg/kg
[25] = 12da 10 mg/kg, vemurafenib 20 mg/kg, i.p. once per day 5 days per week, after 3 weeks of treatment, n=7
[26] = 12da 10 mg/kg, vemurafenib 20 mg/kg, after 3 weeks of treatment, n=7
[27] = vemurafenib 30 mg/kg, 12da 15 mg/kg, n=5

SMILES: COc1cc(C(=O)c2csc(-c3ccccc3)n2)cc(OC)c1OC [1 h, reference compound]
oral bioavailability [1]: 3.3%
Aqueous solubility ([2]; PBS pH 7.4): (1.1) μg/mL

SMILES: COc1ccc(-c2nc(C(=O)c3ccc(F)cc3)c[nH]2)cc1 [12cb, (4-fluorophenyl)(2-(4-methoxyphenyl)-1H-imidazol-4-yl)methanone]
metastasis of melanoma to the lungs [3]: inhibition
concentration showing effective inhibition of B16-F1 colony formation [4]: 20 nM

SMILES: COc1cc(C(=O)c2c[nH]c(-c3ccc(C)cc3)n2)cc(OC)c1OC [12da, (2-(p-tolyl)-1H-imidazol-4-yl)(3,4,5-trimethoxyphenyl)methanone]
metastasis of melanoma to the lungs [3]: inhibition
counted cell apoptosis or death (percentage sum of Q1, Q2 and Q4) [5]: 11.8±3.0%
IC50 [6]: 0.0107 ± 0.0015 µM
IC50 [7]: 0.0136 ± 0.0044 µM
TGI (%) [8, 25]: 38.12% and 38.12 ± 6.14%
Tumor weight (gram) [8, 26]: 1.77 ± 0.11 gram
TGI (%) [8, 27]: 72.72% and 72.72 ± 8.29%
Tumor weight (gram) [8, 27]: 0.51 ± 0.12 gram

solubility at […] ([2]; phosphate buffered saline, aqueous buffer, kinetic from dmso stock, PBS pH 7.4): 12 µg/mL (≈ 32.2 µM)
half-life at 0.5 μM [9]: 44 min
SMILES: COc1cc(C(=O)c2c[nH]c(-c3ccc(Cl)cc3)n2)cc(OC)c1OC [12fa, (2-(4-chlorophenyl)-1H-imidazol-4-yl)(3,4,5-trimethoxyphenyl)methanone]

SMILES: O=C(c1ccc(F)cc1)c1c[nH]c(-c2ccc(OCc3ccccc3)cc2)n1 [12jb, (2-(4-(benzyloxy)phenyl)-1H-imidazol-4-yl)(4-fluorophenyl)methanone]
increase in activity compared with the para-hydroxy compound 12kb [10]: 440 fold

SMILES: O=C(c1ccc(Br)cc1)c1nc(-c2ccc(Br)cc2)c[nH]1 [70t]
IC50 [11]: 25500 nM
IC50 [12]: 16900 nM
IC50 [13]: 18900 nM
IC50 [14]: 13200 nM

SMILES: COc1ccc(C(=O)c2nc(-c3cc(OC)c(OC)c(OC)c3)c[nH]2)cc1 [70y]
IC50 [12]: 708 nM
IC50 [13]: 10400 nM
IC50 [14]: 5680 nM

SMILES: CN(C)/N=N/c1[nH]cnc1C(N)=O [DTIC, reference compound]
melanoma tumor growth inhibition (TGI value) [15]: 51%
melanoma tumor growth inhibition (TGI value) [16]: 52%

SMILES: CC(=O)O[C@@]12CO[C@@H]1C[C@H](O)[C@@]1(C)C(=O)[C@H](O)C3=C(C)[C@@H](OC(=O)[C@H](O)[C@@H](NC(=O)OC(C)(C)C)c4ccccc4)C[C@@](O)([C@@H](OC(=O)c4ccccc4)[C@H]21)C3(C)C [Docetaxel]
Tumor size (mm^2) End ([17]; IV 10mpk): 1774 ± 183 mm^2
Tumor size (mm^2) Start ([17]; IV 10mpk): 143 ± 20 mm^2
Tumor size (mm^2) End ([17]; IV 20mpk): 999 ± 905 mm^2
Tumor size (mm^2) Start ([17]; IV 20mpk): 170 ± 80 mm^2
TGI (%) ([17]; mouse, in vivo, iv, 10 mg/kg): 14%
counted cell apoptosis or death (percentage sum of Q1, Q2 and Q4) [5]: 6.4±3.0%
Brain (ng/mL), 4 hr [18]: 20 ± 9 ng/mL
Plasma (ng/mL), 1 hr [18]: 768 ± 92 ng/mL
Plasma (ng/mL), 4 hr [18]: 345 ± 94 ng/mL
Brain (ng/mL), 1 hr ([18]; mean ± SD, 3 nude mice): 33 ± 14 ng/mL
CI ED75 [19]: 0.80
CI ED90 [19]: 0.90

SMILES: COc1cccc2c1C(=O)c1c(O)c3c(c(O)c1C2=O)C[C@@](O)(C(=O)CO)C[C@@H]3O[C@H]1C[C@H](N)[C@H](O)[C@H](C)O1 [Doxorubicin]
CI value EC75 [20]: 11.6

SMILES: NC1(c2ccc(-c3nc4ccn5c(=O)[nH]nc5c4cc3-c3ccccc3)cc2)CCC1 [MK2206]
CI value EC75 [20]: 0.67

SMILES: CCN(CC)CCNC(=O)c1c(C)[nH]c(/C=C2\C(=O)Nc3ccc(F)cc32)c1C [Sunitinib]
CI ED75 [19]: 0.91
CI ED90 [19]: 0.93

SMILES: CC(=O)Nc1cccc(-n2c(=O)n(C3CC3)c(=O)c3c(Nc4ccc(I)cc4F)n(C)c(=O)c(C)c32)c1 [Trametinib]
CI ED75 [19]: 0.90
CI ED90 [19]: 0.90

SMILES: CCCS(=O)(=O)Nc1ccc(F)c(C(=O)c2c[nH]c3ncc(-c4ccc(Cl)cc4)cc23)c1F [Vemurafenib, reference compound]
concentration of vemurafenib to produce G0/G1 cell cycle arrest [21]: ≥ 30 µM
counted cell apoptosis or death (percentage sum of Q1, Q2 and Q4) [5]: 11.9±3.5%
concentration of vemurafenib to produce G0/G1 cell cycle arrest [22]: less than 1 μM
TGI (%) [8, 25]: 22.65 ± 8.31%
TGI (%) ([8]; 12da 10 mg/kg, vemurafenib 20 mg/kg, i.p. once per day 5 days per week, after 3 weeks of treatment, n=7, listed as vemurafenib): 22.65%
Tumor weight (gram) [8, 26]: 2.05 ± 0.14 gram
TGI (%) [8, 27]: 28.10 ± 4.81%
Tumor weight (gram) [8, 27]: 1.05 ± 0.21 gram
TGI (%) ([8]; vemurafenib 30 mg/kg, 12da 15 mg/kg, n=5, listed as vemurafenib): 28.10%

SMILES: CC[C@]1(O)C[C@@H]2CN(CCc3c([nH]c4ccccc34)[C@@](C(=O)OC)(c3cc4c(cc3OC)N(C)[C@H]3[C@@](O)(C(=O)OC)[C@H](OC(C)=O)[C@]5(CC)C=CCN6CC[C@]43[C@@H]65)C2)C1 [Vinblastine]
CI value EC75 [20]: 0.78

SMILES: CC[C@]1(O)C[C@H]2CN(CCc3c([nH]c4ccccc34)[C@@](C(=O)OC)(c3cc4c(cc3OC)N(C=O)[C@H]3[C@@](O)(C(=O)OC)[C@H](OC(C)=O)[C@]5(CC)C=CCN6CC[C@]43[C@@H]65)C2)C1 [Vincristine]
tumor growth inhibition (TGI) [23]: 84%

RatPK_IV5mgk_Cl ([1]; IV 5 mg/kg): 16 mL/min/kg
RatPK_IV5mgk_V ([1]; IV 5 mg/kg): 1.9 L/kg
RatPK_PO10mgk_AUC ([1]; PO 10 mg/kg): 218 µg·min/mL
RatPK_PO10mgk_Cmax ([1]; PO 10 mg/kg): 1109 ng/mL
Solubility ([2]; aqueous): 12 µg/mL (≈ 32.2 µM)
MousePK_IV10mgk_Cl [24]: 61 mL/min/kg
MousePK_IV10mgk_V [24]: 4 L/kg
MousePK_PO20mgk_AUC ([24]; PO 20 mg/kg): 201 µg·min/mL
MousePK_PO20mgk_Cmax ([24]; PO 20 mg/kg): 2592 ng/mL
SMILES: COc1cc(C(=O)c2c[nH]c(-c3ccc(Cl)cc3)n2)cc(OC)c1OC [drawing 51]

SMILES: COc1cc(C(=O)c2csc(-c3ccccc3)n2)cc(OC)c1OC [drawing 53]
RatPK_IV5mgk_V ([1]; IV, 2.5mpk): 4.9 (2.5mpk) L/kg
RatPK_PO10mgk_AUC ([1]; PO 10 mg/kg): 37 µg·min/mL
RatPK_Bioavailability ([1]; oral): 3.3 % F
MousePK_IV10mgk_Cl [24]: 130 mL/min/kg
MousePK_IV10mgk_V [24]: 4.9 L/kg
half-life at 0.5 μM [9]: 17 min
